Values joined by “and” are separate entries in the source; they are usually repeats but may differ in a detail not shown here. Equal values may be shown once.
Legend:
[1] = test system: intracranial MDA-MB-468; assay: Survival studies in mice; assay type: in vivo, mouse; conditions: 50 mg kg^−1 iv, three times per week, n=7
[2] = test system: normal neurons; assay type: cell-based; conditions: constant exposure of 72 hours
[3] = LC-MS/MS profile of brain and tumor extracts; conditions: 1 h post-intravenous injection
[4] = PAMPA-BBB permeability
[5] = test system: epichaperomes in MDA-MB-468 cells; assay: Epichaperome modulation, Native PAGE; assay type: cell-based, human
[6] = test system: GBM#8; assay: Survival studies in mice; assay type: in vivo, mouse; conditions: 50 mg kg^−1 iv, three times per week, n=7
Text: (§1) Survival of the animals was followed until the mice became morbid (physical and/or neurological symptoms), at which point, the animals were killed. Typically, mice became symptomatic several weeks to a few months after GSC implantation. Log-rank tests were used to compare the distribution of time to killing across groups and Kaplan–Meier curves were produced.

[7] = test system: GBM#5; assay: Survival studies in mice; assay type: in vivo, mouse; conditions: 50 mg kg^−1 iv, three times per week, n=7
Text: as §1

[8] = test system: GBM#7; assay: Survival studies in mice; assay type: in vivo, mouse; conditions: 50 mg kg^−1 iv, three times per week, n=7
Text: as §1

[9] = biological target: HSP90 pools in JNPL3 (AD transgenic) mouse brain lysate; assay: Fluorescence polarization (FP) competitive binding, cy3B-GM; conditions: read-out: FP relative affinity

## CC(C)(C)CNCCn1c(Sc2cc3c(cc2I)OCO3)nc2c(N)ncnc21 [Compound 85]
[1]
  survival vs vehicle, log-rank P: 0.0001
[2]
  concentration needed to induce toxicity: 100 µM
[3]
  species detected in lesions and brain: only the intact PU-HZ151 molecule
[4]; Supplementary Table 6
  PAMPA_BBB: 15.4±2.6
[4]; pig, PAMPA, pH 7.4
  Papp at 16 h, 50 μM: 15.4 ± 1.3 ×10⁻⁶ cm/s
[5]; [PU-HZ151] 0.05 uM
  Epichaperome modulation (Native PAGE), R1-R3: 101.613 and 126.223 and 117.544
[5]; [PU-HZ151] 0.1 uM
  Epichaperome modulation (Native PAGE), R1-R3: 92.742 and 86.889 and 60.276
[6]
  survival vs vehicle, log-rank P: 0.21
[7]
  survival vs vehicle, log-rank P: 0.86
[8]
  survival vs vehicle, log-rank P: 0.0061
[9]
  EC50: 5 nM

From PMC8333062, “Chemical tools for epichaperome-mediated interactome dysfunctions of the central nervous system” (Nature Communications, 2021)
